From US8304236B2, “Modified biotin-binding protein” (Japan Tobacco Inc., priority 2008, dated 2012)
Where two headings read alike, the source gives them in different places.

Columns and labels:
[1] = target: tamavidin 2 (TM2) variant TM2 R104EK141E, SEQ ID NO: 16 (Pleurotus cornucopiae, UniProt B9A0T7, K141E/R104E); experiment: Biacore 3000 biotin-binding test of low-pI TM2 (Example 1); conditions: SA-LC-Biotin (22.4 Å) immobilized; 25° C.
Method: (7) a TM2 mutant in which arginine at position 104 was replaced with glutamic acid, and lysine at position 141 was replaced with glutamic acid (hereinafter referred to as “TM2 R104EK141E”; its nucleotide sequence is listed in SEQ ID NO: 15, and the amino acid sequence in SEQ ID NO: 16).
(§1) HBS-EP (Biacore) was used as a running buffer, and each low-pI TM2 (40 μL) was injected at 25° C. and a flow rate of 20 μL/min for 2 minutes.
(§2) From the resulting sensorgrams, the binding rate constant (ka), the dissociation rate constant (kd), and the dissociation constant (KD) were calculated using an analysis software, BIAevaluation version 4.1.

[2] = target: tamavidin 2 (TM2) variant TM2 K73Q, SEQ ID NO: 6 (Pleurotus cornucopiae, UniProt B9A0T7, K73Q); experiment: as above; conditions: SA-LC-Biotin (22.4 Å) immobilized; 25° C.
Method: (2) a TM2 mutant in which lysine at position 73 was replaced with glutamine (hereinafter referred to as “TM2 K73Q”; its nucleotide sequence is listed in SEQ ID NO: 5, and the amino acid sequence in SEQ ID NO: 6);
as §1, §2

[3] = target: T1, tamavidin 2 (TM2), wild type, SEQ ID NO: 2, Pleurotus cornucopiae (Pleurotus cornucopiae, UniProt B9A0T7); conditions: WO2008/081938 A1; cited from earlier work
T1 sequence (B9A0T7 1-141): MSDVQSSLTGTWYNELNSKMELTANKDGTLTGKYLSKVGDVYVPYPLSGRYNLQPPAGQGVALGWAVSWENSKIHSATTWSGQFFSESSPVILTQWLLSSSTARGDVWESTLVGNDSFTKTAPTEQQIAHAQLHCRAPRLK

[4] = target: tamavidin 2 (TM2) variant TM2 R104E, SEQ ID NO: 8 (Pleurotus cornucopiae, UniProt B9A0T7, R104E); experiment: Biacore 3000 biotin-binding test of low-pI TM2 (Example 1); conditions: BSA-LCLC-Biotin (30.5 Å) immobilized; 25° C.
Method: (3) a TM2 mutant in which arginine at position 104 was replaced with glutamic acid (hereinafter referred to as “TM2 R104E; its nucleotide sequence is listed in SEQ ID NO: 7, and the amino acid sequence in SEQ ID NO: 8);
as §1, §2

[5] = system: streptavidin; conditions: similarly measured; WO2008/081938 A1; cited from earlier work
[6] = target: tamavidin 2 (TM2) variant TM2 K33TK37AR104E, SEQ ID NO: 14 (Pleurotus cornucopiae, UniProt B9A0T7, K33T/K37A/R104E); experiment: Biacore 3000 biotin-binding test of low-pI TM2 (Example 1); conditions: BSA-LCLC-Biotin (30.5 Å) immobilized; 25° C.
Method: as §1, §2

[7] = target: T1, tamavidin 2 (TM2), wild type, SEQ ID NO: 2, Pleurotus cornucopiae; experiment: as above; conditions: 25° C.
Method: as §1, §2

[8] = target: T1, tamavidin 2 (TM2), wild type, SEQ ID NO: 2, Pleurotus cornucopiae; experiment: Biacore 3000 biotin binding test (Example 3); conditions: Biotin-BSA (22.4 Å) immobilized
Method: TM2 and HALU TM2 used as analytes were prepared by purification with 2-iminobiotin agarose in accordance with a common method and dialysis with 20MM KPi (pH 7) overnight. The analytes were each adjusted to about 50 μg/mL in 10 mM acetate buffer (pH 5, Biacore).
The immobilization of the ligand and measurement and analysis of specific interaction with the analytes were conducted as in paragraph 2-7-2).

[9] = system: tamavidin 2 (TM2) variant TM2 D40N, SEQ ID NO: 20; experiment: Biacore 3000 biotin-binding test (Example 2); set-up: species or system Pleurotus cornucopiae; conditions: Biotin-LC-BSA
Method: As described above, a TM2 mutant in which aspartic acid at position 40 was replaced with asparagine (hereinafter referred to as “TM2 D40N”; its nucleotide sequence SEQ ID NO: 19, and the amino acid sequence in SEQ ID NO: 20) was constructed.
The solution was put into a dialysis tube (MWCO 6-8,000) and was dialyzed with 50 mM sodium carbonate (pH 6.7) at 4° C. overnight.
The amount for immobilization was adjusted to about 200 RU.
Accordingly, seven step measurement (3.125, 6.25, […], 25, 50, 100, and 200 nM) was conducted from the lowest concentration, without recycling steps. […] The measurement was performed at 25° C. The resulting sensorgrams were subjected to reaction kinetics analysis using analysis software BIAevaluation ver. 4.1 with a 1:1 binding model to calculate the binding rate constant (ka) and the dissociation rate constant (kd). The dissociation constant (KD) was determined from kd/ka. In the case where no recycling step is employed, the Rmax (maximum amount of binding analyte) decreases at each measurement. Accordingly, in the analysis, the Rmax was calculated by conducting local fitting for each concentration, and only the data of analyte concentrations that were approximated to the 1:1 binding model was employed.

[10] = target: tamavidin 2 (TM2) variant TM2 K26A, SEQ ID NO: 4 (Pleurotus cornucopiae, UniProt B9A0T7, K26A); experiment: Biacore 3000 biotin-binding test of low-pI TM2 (Example 1); conditions: SA-LC-Biotin (22.4 Å) immobilized; 25° C.
Method: (1) a TM2 mutant in which lysine at position 26 was replaced with alanine (hereinafter referred to as “TM2 K26A”; its nucleotide sequence is listed in SEQ ID NO: 3 and the amino acid sequence in SEQ ID NO: 4);
as §1, §2

[11] = target: tamavidin 2 (TM2) variant TM2 K33TK37A, SEQ ID NO: 12 (Pleurotus cornucopiae, UniProt B9A0T7, K33T/K37A); experiment: as above; conditions: BSA-LCLC-Biotin (30.5 Å) immobilized; 25° C.
Method: (5) a TM2 mutant in which lysine at position 33 was replaced with threonine, and lysine at position 37 was replaced with alanine (hereinafter referred to as “TM2 K33TK37A”; its nucleotide sequence is listed in SEQ ID NO: 11, and the amino acid sequence in SEQ ID NO: 12);
as §1, §2

[12] = target: tamavidin 2 (TM2) variant TM2 K141E, SEQ ID NO: 10 (Pleurotus cornucopiae, UniProt B9A0T7, K141E); experiment: as above; conditions: BSA-LCLC-Biotin (30.5 Å) immobilized; 25° C.
Method: (4) a TM2 mutant in which lysine at position 141 was replaced with glutamic acid (hereinafter referred to as “TM2 K141E; its nucleotide sequence is listed in SEQ ID NO: 9, and the amino acid sequence in SEQ ID NO: 10);
as §1, §2

[13] = target: T1, tamavidin 2 (TM2), wild type, SEQ ID NO: 2, Pleurotus cornucopiae; experiment: Biacore 3000 iminobiotin binding test (Example 2); conditions: Iminobiotin-BSA analyte, protein immobilized, pH 11, 25° C.
Method: These samples were diluted with 10 mM acetate buffer (pH 5, Biacore) into about 50 μg/mL.
Immobilization was performed at 25° C. and a flow rate of 10 μL/min using HBS-EP (Biacore) as a running buffer. The TM2 and the TM2 mutant (about 4000 to 8000 RU) were immobilized on CM5 sensor chips (Biacore) by amine coupling. The activating time was set to 10 minutes.
The specific interaction was measured using iminobiotin BSA as an analyte (a material flowing in a flow channel) at 25° C. and a flow rate of 20 μL/min and using a CAPS buffer (50 mM CAPS, 150 mM NaCl, 0.005% Tween 20, pH 11) as the running buffer. Iminobiotin BSA was produced as follows: A highly purified BSA (Sigma, 2 mg) and NHS-iminobiotin (Pierce, 1 mg) were dissolved in 50 mM sodium borate (pH 8.0, 1 mL), followed by incubation at 4° C. for 2 hours. […] Subsequently, the iminobiotin-BSA produced by the process described above was similarly measured with the same flow cell.
Each constant of samples showing interaction was calculated using analysis software BIAevaluation ver. […] The dissociation constant (KD) was determined from kd/ka. […] Accordingly, in the analysis, the Rmax was calculated by conducting local fitting for each concentration, and only the results at concentrations (mainly 18.75 to 75 nM) approximated to the 1:1 (Langmuir) binding model were employed.

tamavidin 2 (TM2) variant TM2 K26A, SEQ ID NO: 4, sequence (B9A0T7 entry or part of it K26A): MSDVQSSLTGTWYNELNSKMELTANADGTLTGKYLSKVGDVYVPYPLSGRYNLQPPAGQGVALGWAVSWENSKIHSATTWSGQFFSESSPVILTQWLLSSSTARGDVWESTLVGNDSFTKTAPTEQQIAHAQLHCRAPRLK
tamavidin 2 (TM2) variant TM2 K73Q, SEQ ID NO: 6, sequence (B9A0T7 entry or part of it K73Q): as the sequence (B9A0T7 entry or part of it K26A) above, with A26K, K73Q counted along it
tamavidin 2 (TM2) variant TM2 R104E, SEQ ID NO: 8, sequence (B9A0T7 entry or part of it R104E): as the sequence (B9A0T7 entry or part of it K26A) above, with A26K, R104E counted along it
tamavidin 2 (TM2) variant TM2 K141E, SEQ ID NO: 10, sequence (B9A0T7 entry or part of it K141E): as the sequence (B9A0T7 entry or part of it K26A) above, with A26K, K141E counted along it
tamavidin 2 (TM2) variant TM2 K33TK37AR104E, SEQ ID NO: 14, sequence (B9A0T7 entry or part of it K33T/K37A/R104E): as the sequence (B9A0T7 entry or part of it K26A) above, with A26K, K33T, K37A, R104E counted along it
tamavidin 2 (TM2) variant TM2 K33TK37A, SEQ ID NO: 12, sequence (B9A0T7 entry or part of it K33T/K37A): as the sequence (B9A0T7 entry or part of it K26A) above, with A26K, K33T, K37A counted along it
tamavidin 2 (TM2) variant TM2 R104EK141E, SEQ ID NO: 16, sequence (B9A0T7 entry or part of it R104E/K141E): as the sequence (B9A0T7 entry or part of it K26A) above, with A26K, R104E, K141E counted along it

SMILES: O=C(O)CCCC[C@@H]1SC[C@@H]2NC(=O)N[C@@H]21 [biotin, D-[(+)-cis-hexahydro-2-oxo-1H-thieno-(3,4)-imidazole-4-valerate]]
- binding rate constant (ka) [1]: 1.2 × 10^6
- binding rate constant (ka) [2]: 5.9 × 10^5
- binding rate constant (ka) [3]: 919000 M⁻¹ s⁻¹
- dissociation rate constant (kd) [3]: 6.83e-06 s⁻¹
- binding rate constant (ka) [4]: 5.8 × 10^5
- binding rate constant (ka) [5]: 2.28e+06 M⁻¹ s⁻¹
- dissociation rate constant (kd) [5]: 2.52e-06 s⁻¹
- binding rate constant (ka) [6]: 6.3 × 10^5
- binding rate constant (ka) ([7]; BSA-LCLC-Biotin (30.5 Å) immobilized): 9.2 × 10^5
- binding rate constant (ka) ([7]; SA-LC-Biotin (22.4 Å) immobilized): 9.9 × 10^5
- binding rate constant (ka) [8]: 9.9 × 10^5
- change of binding rate constant (ka) compared to TM2 [9]: increased
- change of dissociation rate constant (kd) compared to TM2 [9]: decreased
- binding rate constant (ka) [10]: 5.0 × 10^5
- binding rate constant (ka) [11]: 2.5 × 10^5
- binding rate constant (ka) [12]: 5.8 × 10^5

SMILES: N=C1N[C@H]2[C@H](CS[C@H]2CCCCC(=O)O)N1 [iminobiotin]
- kon ([13]; read-out: binding rate constant (ka)): 130000 ± 5e+09 M⁻¹ s⁻¹
- koff ([13]; read-out: dissociation rate constant (kd)): 0.0013 ± 6e-07 s⁻¹
